Experimental findings from patent US9243002B2, “Tetracyclic heterocycle compounds and methods of use thereof for the treatment of hepatitis C” (priority 2013, dated 2016) are described below.

Like-named read-outs stand apart in the source and are kept apart here.

For one assay, the system named is HCV genotype 1b replicon. As to the kind of experiment: HCV replicon assay, genotype 1b (cell ELISA for NS3/4A). The assay is classed as cell-based, hepatitis C virus. As to the method:
(§1) Measurement of inhibition by compounds was performed using the HCV replicon system. Several different replicons encoding different HCV genotypes or mutations were used. In addition, potency measurements were made using different formats of the replicon assay, including different ways of measurements and different plating formats. See Jan M. Vrolijk et al., A replicons-based bioassay for the measurement of interferons in patients with chronic hepatitis C, 110 J. VIROLOGICAL METHODS 201 (2003); Steven S. Carroll et al., Inhibition of Hepatitis C Virus RNA Replication by 2′-Modified Nucleoside Analogs, 278 (14) J. BIOLOGICAL CHEMISTRY 11979 (2003). However, the underlying principles are common to all of these determinations, and are outlined below.
(§2) Stable neomycin phosphotransferase encoding replicons-harboring cell lines were used, so all cell lines were maintained under G418 selection prior to the assay. Potency was deteremined using a cell ELISA assay with an antibody to the replicons encoded NS3/4a protease. See Caterina Trozzi et al., In Vitro Selection and Characterization of Hepatitis C Virus Serine Protease Variants Resistant to an Active-Site Peptide Inhibitor, 77 (6) J. Virol. 3669 (2003). To initiate an assay, replicon cells were plated in the presence of a dilution series of test compound in the absence of G418. Typically, the assays were performed in a 96-well plate formate for manual operation, or a 384-well plate format for automated assay. Replicon cells and compound were incubated for 96 hours. At the end of the assay, cells were washed free of media and compound, and the cells were then lysed. RNA was quantified indirectly through detection of replicon-encoded NS3/4A protein levels, through an ELISA-based assay with an antibody specific for NS3/4A. IC50 determinations were calculated as a percentage of a DMSO control by fitting the data to a four-parameter fit function and the data obtained for genotypes 1a and 1b using this method is provided in the table below.

For a further assay, the system named is HCV genotype 1a replicon. Put plainly: HCV replicon assay, genotype 1a (cell ELISA for NS3/4A). In kind it is cell-based, hepatitis C virus. As to the method:
as §1, §2

Where [1] appears, read: Hepatitis C virus, 96 h, read-out: 1b IC50 (nM), genotype 1b replicon cells, 96 hours incubation, NS3/4A ELISA.
[2] abbreviates: Hepatitis C virus, 96 h, read-out: 1a IC50 (nM), genotype 1a replicon cells, 96 hours incubation, NS3/4A ELISA.
[3] abbreviates: genotype 1b replicon cells, 96 hours incubation, NS3/4A ELISA, read-out: 1b IC50.
[4] abbreviates: genotype 1a replicon cells, 96 hours incubation, NS3/4A ELISA, read-out: 1a IC50.
[5] abbreviates: read-out: 1a IC50, genotype 1a replicon cells, 96 hours incubation, NS3/4A ELISA.

Turning to `CNC(=O)c1c(-c2ccc(F)cc2)nn2cc(N(C)S(C)(=O)=O)c(-c3ccc4c(n3)-c3cc5c(F)cccc5n3CC4)cc12` [Example 46, 5-(11-fluoro-5,6-dihydroindolo[1,2-h][1,7]naphthyridin-2-yl)-2-(4-fluorophenyl)-N-methyl-6-(N-methylmethylsulfonamido)pyrazolo[1,5-a]pyridine-3-carboxamide], the results for the IC50 in the assay with HCV genotype 1b replicon (setting [1]) and in the assay with HCV genotype 1a replicon (setting [2]) were 2.4 nM and 2.23 nM, respectively.

`CNC(=O)c1c(-c2ccc(F)cc2F)oc2cc(N(C)S(C)(=O)=O)c(-c3ccc4c(n3)-c3cc5c(F)cccc5n3C(CO)C4)cc12` (single isomer, unassigned) [Example 50, (R or S)-2-(2,4-difluorophenyl)-5-(1.1-fluoro-6-(hydroxymethyl)-5,6-dihydroindolo[1,2-h][1,7]naphthyridin-2-yl)-N-methyl-6-(N-methylmethylsulfonamido)benzofuran-3-carboxamide]: the IC50 in the assay with HCV genotype 1b replicon (setting [3]) is 3.36 nM; in the assay with HCV genotype 1a replicon (setting [4]), 1.15 nM.

On to `CNC(=O)c1c(-c2ccc(F)cc2F)oc2cc(N(C)S(C)(=O)=O)c(-c3ccc4c(n3)-c3cc5c(F)cccc5n3C(CN3CC(F)C3)C4)cc12` (centres unmarked) [Example 95], for which the IC50 with HCV genotype 1b replicon (setting [1]) came out at 7.53 nM; in the assay with HCV genotype 1a replicon (setting [2]), 8.91 nM.

Turning to `CNC(=O)c1c(-c2ccc(F)cc2)oc2cc(N(C)S(C)(=O)=O)c(-c3cc4c(nn3)CCn3c-4cc4c(F)cccc43)cc12` [Example 48, 5-(11-fluoro-5,6-dihydropyridazino[4′,3′:3,4]pyrido[1,2-a]indol-2-yl)-2-(4-fluorophenyl)-N-methyl-6-(N-methylmethylsulfonamido)benzofuran-3-carboxamide], the results for the IC50 in the assay on HCV genotype 1b replicon (setting [1]) and in the assay with HCV genotype 1a replicon (setting [2]) were 2.64 nM and 1.72 nM, respectively.

`CNC(=O)c1c(-c2cnc(C(C)(C)O)s2)oc2cc(N(C)S(C)(=O)=O)c(-c3ccc4c(n3)-c3cc5c(F)cccc5n3CC4)cc12` [Example 20]: the IC50 was found to be 129 nM in the assay on HCV genotype 1b replicon (setting [1]) and 680 nM with HCV genotype 1a replicon (setting [2]).

As to `CCc1ncc(-c2oc3cc(N(C)S(C)(=O)=O)c(-c4ccc5c(n4)-c4cc6c(F)cccc6n4CC5)cc3c2C(=O)NC)s1` [Example 38], the IC50 with HCV genotype 1b replicon (setting [1]) is 17 nM; in the assay with HCV genotype 1a replicon (setting [2]), 21.8 nM.

Turning to `CNC(=O)c1c(-c2ccc(F)cc2)oc2cc(N(C)S(C)(=O)=O)c(-c3cc4c(cn3)CC(C)(C)n3c-4cc4c(F)cccc43)cc12` [Example 64, 5-(11-fluoro-6,6-dimethyl-5,6-dihydroindolo[2,1-a][2,6]naphthyridin-2-yl)-2-(4-fluorophenyl)-N-methyl-6-(N-methylmethylsulfonamido)benzofuran-3-carboxamide], the IC50 in the assay with HCV genotype 1b replicon (setting [1]) came out at 9.09 nM; in the assay on HCV genotype 1a replicon (setting [2]), 23.2 nM.

For the compound `CNC(=O)c1c(-c2ccc(F)cc2)oc2cc(N(C)S(C)(=O)=O)c(-c3ccc4c(n3)-c3cc5c(F)cccc5n3C(CN3CC[C@@H](F)C3)C4)cc12` (some centres unmarked) [Example 94], the IC50 with HCV genotype 1b replicon (setting [1]) is 10.8 nM; with HCV genotype 1a replicon (setting [2]) it was 34 nM.

For `CNC(=O)c1c(-c2ccc(C(F)(F)F)cc2)oc2cc(N(C)S(C)(=O)=O)c(-c3ccc4c(n3)-c3cc5c(F)cccc5n3CC4)cc12` [Example 1, 5-(11-fluoro-5,6-dihydroindolo[1,2-h][1,7]naphthyridin-2-yl)-N-methyl-6-(N-methylmethylsulfonamido)-2-(4-(trifluoromethyl)phenyl)benzofuran-3-carboxamide], the IC50 with HCV genotype 1b replicon (setting [3]) was 4.67 nM; in the assay with HCV genotype 1a replicon (setting [4]), 3.78 nM.

In the case of `CNC(=O)c1c(-c2ccc(F)cc2)oc2cc(N(C)S(C)(=O)=O)c(-c3ccc4c(n3)-c3cc5c(F)cccc5n3C(CS(C)(=O)=O)C4)cc12` (single isomer, unassigned) [Example 56, (R or S)-5-(11-fluoro-6-((methylsulfonyl)methyl)-5,6-dihydroindolo[1,2-h][1,7]naphthyridin-2-yl)-2-(4-fluorophenyl)-N-methyl-6-(N-methylmethylsulfonamido)benzofuran-3-carboxamide], the IC50 was 2 nM with HCV genotype 1b replicon (setting [1]) and 3.4 nM in the assay on HCV genotype 1a replicon (setting [5]).

`CNC(=O)c1c(-n2ccccc2=O)oc2cc(N(C)S(C)(=O)=O)c(-c3ccc4c(n3)-c3cc5c(F)cccc5n3CC4)cc12` [Example 34]: the IC50 was 4.66 nM in the assay with HCV genotype 1b replicon (setting [1]) and 5.38 nM in the assay on HCV genotype 1a replicon (setting [2]).

Consider `CNC(=O)c1c(-c2ccnn2C(C)C)oc2cc(N(C)S(C)(=O)=O)c(-c3ccc4c(n3)-c3cc5c(F)cccc5n3CC4)cc12` [Example 17, 5-(11-fluoro-5,6-dihydroindolo[1,2-h][1,7]naphthyridin-2-yl)-2-(1-isopropyl-1H-pyrazol-5-yl)-N-methyl-6-(N-methylmethylsulfonamido)benzofuran-3-carboxamide], for which the IC50 is 197 nM with HCV genotype 1b replicon (setting [1]) and 373 nM in the assay on HCV genotype 1a replicon (setting [2]).

Regarding `CNC(=O)c1c(-c2ccc(F)cc2)oc2cc(N(C)S(C)(=O)=O)c(-c3ccc4c(n3)-c3cc5c(F)cccc5n3CC=C4)cc12` [Example 98, 5-(12-fluoro-7H-pyrido[2′,3′:3,4]azepino[1,2-a]indol-2-yl)-2-(4-fluorophenyl)-N-methyl-6-(N-methylmethylsulfonamido)benzofuran-3-carboxamide], the IC50 came to 8.65 nM in the assay with HCV genotype 1b replicon (setting [1]) and 4.17 nM with HCV genotype 1a replicon (setting [2]).

In the case of `CNC(=O)c1c(-c2ccc(F)cc2)oc2cc(N(C)S(C)(=O)=O)c(-c3ccc4c(n3)-c3cc5c(F)cccc5n3C(CN3CC(F)(F)C3)C4)cc12` (centres unmarked) [Example 91], the IC50 in the assay on HCV genotype 1b replicon (setting [1]) came to 9.23 nM; in the assay with HCV genotype 1a replicon (setting [2]), 27.6 nM.

In the case of `CNC(=O)c1c(-c2ccc(C(C)C)nc2)oc2cc(N(C)S(C)(=O)=O)c(-c3ccc4c(n3)-c3cc5c(F)cccc5n3CC4)cc12` [Example 11], the IC50 with HCV genotype 1b replicon (setting [1]) was found to be 661 nM; with HCV genotype 1a replicon (setting [2]) it was 2120 nM.

Turning to `CNC(=O)c1c(-c2cnn3c2CCC3)oc2cc(N(C)S(C)(=O)=O)c(-c3ccc4c(n3)-c3cc5c(F)cccc5n3CC4)cc12` [Example 19], the IC50 in the assay on HCV genotype 1b replicon (setting [1]) was found to be 52.3 nM; in the assay with HCV genotype 1a replicon (setting [2]) it was 56.9 nM.

On to `CNC(=O)c1c(-c2ccc(F)cc2)oc2cc(N(C)S(C)(=O)=O)c(-c3cnc4c(n3)-c3cc5c(F)cccc5n3CC4)cc12` [Example 44, 5-(11-fluoro-5,6-dihydropyrazino[2′,3′:3,4]pyrido[1,2-a]indol-2-yl)-2-(4-fluorophenyl)-N-methyl-6-(N-methylmethylsulfonamido)benzofuran-3-carboxamide], for which the IC50 was found to be 1.87 nM in the assay with HCV genotype 1b replicon (setting [1]) and 1.76 nM with HCV genotype 1a replicon (setting [2]).

For the compound `CNC(=O)c1c(-c2cncs2)oc2cc(N(C)S(C)(=O)=O)c(-c3ccc4c(n3)-c3cc5c(F)cccc5n3CC4)cc12` [Example 37], the IC50 was 14.2 nM in the assay with HCV genotype 1b replicon (setting [1]) and 9.83 nM in the assay with HCV genotype 1a replicon (setting [2]).

Take `CNC(=O)c1c(-c2ccc(F)cc2)oc2cc(N(C)S(C)(=O)=O)c(-c3ccc4c(n3)-c3cc5c(F)cccc5n3C(CO)C4)cc12` (centres unmarked) [Example 53]: the IC50 amounted to 4.03 nM with HCV genotype 1b replicon (read-out: 1b IC50, genotype 1b replicon cells, 96 hours incubation, NS3/4A ELISA) and 8.07 nM in the assay on HCV genotype 1a replicon (setting [5]).

Take `CNC(=O)c1c(-c2ccc(F)cc2)oc2cc(N(C)S(C)(=O)=O)c(-c3ccc4c(n3)-c3cc5c(F)cccc5n3C4CO)cc12` (centres unmarked) [Example 55]: the values for the IC50 in the assay with HCV genotype 1b replicon (setting [1]) and in the assay on HCV genotype 1a replicon (setting [2]) were 1.81 nM and 0.971 nM, respectively.

As to `CNC(=O)c1c(-c2cnc3c(c2)OCCO3)oc2cc(N(C)S(C)(=O)=O)c(-c3ccc4c(n3)-c3cc5c(F)cccc5n3CC4)cc12` [Example 8], the results for the IC50 with HCV genotype 1b replicon (setting [1]) and in the assay with HCV genotype 1a replicon (setting [2]) were 122 nM and 580 nM, respectively.

`CNC(=O)c1c(-c2ccc(C3CC3)nc2)oc2cc(N(C)S(C)(=O)=O)c(-c3ccc4c(n3)-c3cc5c(F)cccc5n3CC4)cc12` [Example 6]: the IC50 turned out to be 10.2 nM in the assay on HCV genotype 1b replicon (setting [1]) and 16.8 nM in the assay with HCV genotype 1a replicon (setting [2]).

In the case of `CNC(=O)c1c(-c2ccc(F)cc2)oc2cc(N(C)S(C)(=O)=O)c(-c3cc4c(cn3)CC(C)n3c-4cc4c(F)cccc43)cc12` (single isomer, unassigned) [Example 41, (R or S)-5-(11-fluoro-6-methyl-5,6-dihydroindolo[2,1-a][2,6]naphthyridin-2-yl)-2-(4-fluorophenyl)-N-methyl-6-(N-methylmethylsulfonamido)benzofuran-3-carboxamide], the IC50 in the assay on HCV genotype 1b replicon (setting [1]) is 6.33 nM; in the assay with HCV genotype 1a replicon (setting [5]), 19.3 nM.

On to `CNC(=O)c1c(-c2ccc(F)cc2C)oc2cc(N(C)S(C)(=O)=O)c(-c3ccc4c(n3)-c3cc5c(F)cccc5n3CC4)cc12` [Example 10], for which the IC50 in the assay with HCV genotype 1b replicon (setting [1]) was 10.7 nM; in the assay on HCV genotype 1a replicon (setting [2]), 9.44 nM.

Turning to `CNC(=O)c1c(-c2ccc(F)cc2)oc2cc(N(C)S(C)(=O)=O)c(-c3ccc4c(n3)-c3cc5cc(F)ccc5n3CC4)cc12` [Example 31, 5-(10-fluoro-5,6-dihydroindolo[1,2-h][1,7]naphthyridin-2-yl)-2-(4-fluorophenyl)-N-methyl-6-(N-methylmethylsulfonamido)benzofuran-3-carboxamide], the figures for the IC50 in the assay on HCV genotype 1b replicon (setting [1]) and in the assay on HCV genotype 1a replicon (setting [2]) were 4.64 nM and 4.53 nM, respectively.
